In US9969737B2, “Fluorescent carbapenems” (Hans Rudolf Pfaendler, priority 2010, dated 2018):

Assays:
[1] = comparison; cited from earlier work
[2] = biological target: T1, Klebsiella pneumoniae carbapenemases (KPC), KPC-2 (Klebsiella pneumoniae, UniProt Q9F663); assay: Detection of KPC carbapenemase by fluorogenic carbapenem after physical disruption by sonication; type: biochemical; settings: cells lysed by sonication, PBS, 100 μg carbapenem, room temperature for 5 min
T1 construct: endogenous in cells; host or cells: Klebsiella pneumoniae clinical strain (KPC-2, Heidelberg), lysed by sonication
T1 sequence (Q9F663 25-293 limits assumed): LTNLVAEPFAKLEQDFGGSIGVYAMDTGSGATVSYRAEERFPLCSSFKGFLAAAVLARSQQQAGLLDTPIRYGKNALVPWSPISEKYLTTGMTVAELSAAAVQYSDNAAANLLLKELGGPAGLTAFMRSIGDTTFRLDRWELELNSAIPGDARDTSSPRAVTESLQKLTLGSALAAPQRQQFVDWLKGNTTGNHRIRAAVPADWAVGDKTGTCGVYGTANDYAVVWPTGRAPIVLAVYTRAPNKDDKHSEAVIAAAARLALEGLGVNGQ
Method: Detection of Klebsiella pneumoniae carbapenemases (KPC) by fluorogenic potassium-(4S,5R,6S)-3-(4-acetyl-phenyl)-6-((1′R)-hydroxy-ethyl)-4-methyl-7-oxo-1-aza-bicyclo[3.2.0]hept-2-ene-2-carboxylate after physical disruption by sonication
(§1) Bacterial strain Klebsiella pneumoniae (producing KPC-2, Heidelberg) was grown over night at 37° C. (220 rpm) in Mueller-Hinton-Broth (10 ml) using a 45-ml-Falcon tube, harvested by centrifugation at 13.000 rpm (2 min, 1 ml for analytical studies, McFarland 10), washed once with PBS (1 ml), and resuspended in PBS (500 μl). Subsequently the cells were lysed by sonication with a Bandelin Sonopuls (5×15 s), pulsed at 80% max. power. Further PBS (500 μl) and fluorogenic carbapenem (100 μg) were added.

[3] = biological target: T1, Klebsiella pneumoniae carbapenemases (KPC), KPC-2; assay: Detection of KPC carbapenemase during sonication with glass beads; type: biochemical; settings: sonication with glass beads in ultrasound bath, 100 μg, treatment for 45 min
Method: Detection of Klebsiella pneumoniae carbapenemases (KPC) by fluorogenic potassium-(4S,5R,6S)-3-(4-acetyl-phenyl)-6-((1′R)-hydroxy-ethyl)-4-methyl-7-oxo-1-aza-bicyclo[3.2.0]hept-2-ene-2-carboxylate during physical disruption by sonication with glass beads
Bacterial strain Klebsiella pneumoniae (producing KPC-2, Heidelberg) was grown over night at 37° C. in Mueller-Hinton-Broth (10 ml). To a sample (1 ml, McFarland 0.5) were added fluorogenic carbapenem (100 μg) and glass beads (100 mg, Sigma-Aldrich, G9018, 150-212 μm, unwashed) using a 5-ml-glass-tube with a plane bottom. The cells were lysed by sonication with a commercial available ultrasound bath.

Oxa-48-carbapenemases = biological target: T2, Oxa-48-carbapenemases (Klebsiella pneumoniae, UniProt Q6XEC0); assay: Detection of inducible (Oxa-type) carbapenemases after sonication; type: biochemical, Escherichia coli
T2 construct: endogenous in cells; host or cells: Escherichia coli strain (producing Oxa-48, Heidelberg), with or without imipenem induction, lysed by sonication
T2 sequence (Q6XEC0 23-265 limits assumed): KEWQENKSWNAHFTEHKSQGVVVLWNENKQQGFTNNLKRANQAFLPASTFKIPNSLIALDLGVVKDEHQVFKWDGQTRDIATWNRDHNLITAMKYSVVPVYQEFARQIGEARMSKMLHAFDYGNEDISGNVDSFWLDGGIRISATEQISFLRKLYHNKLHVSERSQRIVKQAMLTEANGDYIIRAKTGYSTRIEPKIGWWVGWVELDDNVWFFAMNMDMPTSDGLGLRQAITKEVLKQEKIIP
Method: Detection of inducible (Oxa-type) carbapenemases of Escherichia coli by fluorogenic potassium-(4S,5R,6S)-3-(4-acetyl-phenyl)-6-((1′R)-hydroxy-ethyl)-4-methyl-7-oxo-1-aza-bicyclo[3.2.0]hept-2-ene-2-carboxylate after physical disruption by sonication
as §1, with “Escherichia cog” for “Klebsiella pneumoniae”, “Oxa-48,” for “KPC-2,”, “tube. A sample (1 ml, McFarland 10) was diluted in Mueller-Hinton-Broth (10 ml) and incubated with Imipenem (2 μg/ml) for 4 h using a 45-ml-Falcon tube. After” for “tube, harvested by”, “studies), the sample was” for “studies, McFarland 10),”, “ml)” for “ml),”

[4] = system: Klebsiella pneumoniae (VIM-1, Heidelberg); assay: Detection of metallo-carbapenemases in PBS during incubation; type: cell-based; settings: 100 μg, five drops inoculum McFarland 0.5, over night at 37° C.
Method: (§2) Detection of metallo-carbapenemases by fluorogenic potassium-(4S,5R,6S)-3-(4-acetyl-phenyl)-6-((1′R)-hydroxy-ethyl)-4-methyl-7-oxo-1-aza-bicyclo[3.2.0]hept-2-ene-2-carboxylate in PBS during incubation
(§3) Bacterial strains Klebsiella pneumoniae (VIM-1, Heidelberg) and Pseudomonas aeruginosa (IMP, Heidelberg) were grown over night at 37° C. in Mueller-Hinton-Broth (10 ml). To each PBS (1 ml) of fluorogenic carbapenem (100 μg) were added five drops of corresponding inoculum (McFarland 0.5).

[5] = system: Pseudomonas aeruginosa (IMP, Heidelberg); assay: as above; type: cell-based; settings: 100 μg, five drops inoculum McFarland 0.5, over night at 37° C.
Method: as §2, §3

[6] = system: Escherichia coli (ESBL-1, Heidelberg); assay: Detection of carbapenemases during incubation in Mueller-Hinton-Broth; type: cell-based; settings: ESBL-producer, McFarland 0.5, 100 μg, over night at 37° C.
Method: (§4) Detection of carbapenemases by fluorogenic potassium-(4S,5R,6S)-3-(4-acetyl-phenyl)-6-((1′R)-hydroxy-ethyl)-4-methyl-7-oxo-1-aza-bicyclo[3.2.0]hept-2-ene-2-carboxylate during incubation
(§5) Bacterial strains Escherichia coli (ESBL-1, Heidelberg), Escherichia coli (ESBL-2, Heidelberg), Escherichia coli (Oxa-48), Klebsiella pneumoniae (KPC-2, Heidelberg) Klebsiella pneumoniae (VIM-1, Heidelberg), Pseudomonas aeruginosa (GES-2, Heidelberg), Pseudomonas aeruginosa (IMP, Heidelberg) and Pseudomonas aeruginosa (VIM-2, Heidelberg) were grown over night at 37° C. in Mueller-Hinton-Broth (10 ml). To each sample (1 ml, McFarland 0.5) was added fluorogenic carbapenem (100 μg).

[7] = system: Escherichia coli (ESBL-2, Heidelberg); assay: as above; type: cell-based; settings: ESBL-producer, McFarland 0.5, 100 μg, over night at 37° C.
Method: as §4, §5

[8] = system: Escherichia coli (Oxa-48); assay: as above; type: cell-based; settings: McFarland 0.5, 100 μg, over night at 37° C.
Method: as §4, §5

[9] = system: Klebsiella pneumoniae (KPC-2, Heidelberg); assay: as above; type: cell-based; settings: McFarland 0.5, 100 μg, over night at 37° C.
Method: as §4, §5

[10] = system: Klebsiella pneumoniae (VIM-1, Heidelberg); assay: as above; type: cell-based; settings: McFarland 0.5, 100 μg, over night at 37° C.
Method: as §4, §5

[11] = system: Pseudomonas aeruginosa (GES-2, Heidelberg); assay: as above; type: cell-based; settings: McFarland 0.5, 100 μg, over night at 37° C.
Method: as §4, §5

[12] = system: Pseudomonas aeruginosa (IMP, Heidelberg); assay: as above; type: cell-based; settings: McFarland 0.5, 100 μg, over night at 37° C.
Method: as §4, §5

[13] = system: Pseudomonas aeruginosa (VIM-2, Heidelberg); assay: as above; type: cell-based; settings: McFarland 0.5, 100 μg, over night at 37° C.
Method: as §4, §5

[14] = system: Escherichia coli (ESBL-1, Heidelberg); assay: Detection of carbapenemases during optimized incubation; type: cell-based; settings: ESBL-producer, pre-incubated 6 h at 37° C. (220 rpm), 100 μg, over night at 37° C.
Method: (§6) Detection of carbapenemases by fluorogenic potassium-(4S,5R,6S)-3-(4-acetyl-phenyl)-6-((1′R)-hydroxy-ethyl)-4-methyl-7-oxo-1-aza-bicyclo[3.2.0]hept-2-ene-2-carboxylate during optimized incubation
as §5, with “Heidelberg),” for “Heidelberg) and”, “incubated for 6 h” for “grown over night”, “C. (220 rpm)” for “C.”, “ml) using 45-ml-Falcon-tubes.” for “ml).”, “ml)” for “ml, McFarland 0.5)”, “μg) using 15-ml-Falcon-tubes.” for “μg).”

[15] = system: Escherichia coli (ESBL-2, Heidelberg); assay: as above; type: cell-based; settings: ESBL-producer, pre-incubated 6 h at 37° C. (220 rpm), 100 μg, over night at 37° C.
Method: as §6
as §5, with “Heidelberg),” for “Heidelberg) and”, “incubated for 6 h” for “grown over night”, “C. (220 rpm)” for “C.”, “ml) using 45-ml-Falcon-tubes.” for “ml).”, “ml)” for “ml, McFarland 0.5)”, “μg) using 15-ml-Falcon-tubes.” for “μg).”

[16] = system: Escherichia coli (Oxa-48); assay: as above; type: cell-based; settings: pre-incubated 6 h at 37° C. (220 rpm), 100 μg, over night at 37° C.
Method: as §6
as §5, with “Heidelberg),” for “Heidelberg) and”, “incubated for 6 h” for “grown over night”, “C. (220 rpm)” for “C.”, “ml) using 45-ml-Falcon-tubes.” for “ml).”, “ml)” for “ml, McFarland 0.5)”, “μg) using 15-ml-Falcon-tubes.” for “μg).”

[17] = system: Klebsiella pneumoniae (KPC-2, Heidelberg); assay: as above; type: cell-based; settings: pre-incubated 6 h at 37° C. (220 rpm), 100 μg, over night at 37° C.
Method: as §6
as §5, with “Heidelberg),” for “Heidelberg) and”, “incubated for 6 h” for “grown over night”, “C. (220 rpm)” for “C.”, “ml) using 45-ml-Falcon-tubes.” for “ml).”, “ml)” for “ml, McFarland 0.5)”, “μg) using 15-ml-Falcon-tubes.” for “μg).”

[18] = system: Klebsiella pneumoniae (VIM-1, Heidelberg); assay: as above; type: cell-based; settings: pre-incubated 6 h at 37° C. (220 rpm), 100 μg, over night at 37° C.
Method: as §6
as §5, with “Heidelberg),” for “Heidelberg) and”, “incubated for 6 h” for “grown over night”, “C. (220 rpm)” for “C.”, “ml) using 45-ml-Falcon-tubes.” for “ml).”, “ml)” for “ml, McFarland 0.5)”, “μg) using 15-ml-Falcon-tubes.” for “μg).”

[19] = system: Pseudomonas aeruginosa (GES-2, Heidelberg); assay: as above; type: cell-based; settings: pre-incubated 6 h at 37° C. (220 rpm), 100 μg, over night at 37° C.
Method: as §6
as §5, with “Heidelberg),” for “Heidelberg) and”, “incubated for 6 h” for “grown over night”, “C. (220 rpm)” for “C.”, “ml) using 45-ml-Falcon-tubes.” for “ml).”, “ml)” for “ml, McFarland 0.5)”, “μg) using 15-ml-Falcon-tubes.” for “μg).”

[20] = system: Pseudomonas aeruginosa (IMP, Heidelberg); assay: as above; type: cell-based; settings: pre-incubated 6 h at 37° C. (220 rpm), 100 μg, over night at 37° C.
Method: as §6
as §5, with “Heidelberg),” for “Heidelberg) and”, “incubated for 6 h” for “grown over night”, “C. (220 rpm)” for “C.”, “ml) using 45-ml-Falcon-tubes.” for “ml).”, “ml)” for “ml, McFarland 0.5)”, “μg) using 15-ml-Falcon-tubes.” for “μg).”

[21] = system: Pseudomonas aeruginosa (VIM-2, Heidelberg); assay: as above; type: cell-based; settings: pre-incubated 6 h at 37° C. (220 rpm), 100 μg, over night at 37° C.
Method: as §6
as §5, with “Heidelberg),” for “Heidelberg) and”, “incubated for 6 h” for “grown over night”, “C. (220 rpm)” for “C.”, “ml) using 45-ml-Falcon-tubes.” for “ml).”, “ml)” for “ml, McFarland 0.5)”, “μg) using 15-ml-Falcon-tubes.” for “μg).”

[22] = system: Klebsiella pneumoniae (KPC-2, Heidelberg); assay: Detection of carbapenemases during chemical lysis; type: biochemical; settings: McFarland 10 in detergent buffer solution, 100 μg, 6 h at 37° C.
Method: (§7) Detection of carbapenemases by fluorogenic potassium-(4S,5R,6S)-3-(4-acetyl-phenyl)-6-((1′R)-hydroxy-ethyl)-4-methyl-7-oxo-1-aza-bicyclo[3.2.0]hept-2-ene-2-carboxylate during chemical lysis
(§8) Bacterial strains Pseudomonas aeruginosa DSM 1117 (no resistance), Pseudomonas aeruginosa (VIM-2, Heidelberg) and Klebsiella pneumoniae (KPC-2, Heidelberg) were incubated over night at 37° C. on Mueller-Hinton-Agar plates. A sample of each strain was suspended (McFarland 10) in primary-amine-free buffer solution (1 ml) of a detergent from Merck (Germany). Fluorogenic carbapenem (100 μg) was added.

[23] = system: Pseudomonas aeruginosa (VIM-2, Heidelberg); assay: Detection of carbapenemases during chemical lysis; type: biochemical; settings: McFarland 10 in detergent buffer solution, 100 μg, 6 h at 37° C.
Method: as §7, §8

[24] = system: Pseudomonas aeruginosa DSM 1117 (no resistance); assay: Detection of carbapenemases during chemical lysis; type: biochemical; settings: McFarland 10 in detergent buffer solution, 100 μg, 6 h at 37° C.
Method: as §7, §8

## Green Fluorescent Protein
[1]
  Stokes shift: 114 nm

## potassium-(4S,5R,6S)-3-(4-acetyl-phenyl)-6-((1′R)-hydroxy-ethyl)-4-methyl-7-oxo-1-aza-bicyclo[3.2.0]hept-2-ene-2-carboxylate [Example 1]
[2]
  disappearance of the green-yellow fluorescence colour (UV light λ=366 nm): disappearance of the green-yellow fluorescence colour
[3]
  disappearance of the green-yellow fluorescence colour (λ=366 nm): disappearance of the green-yellow fluorescence colour
Oxa-48-carbapenemases; induced with Imipenem (2 μg/ml) for 4 h, lysed by sonication, PBS, room temperature for 5 min
  disappearance of the green-yellow fluorescence colour (UV light λ=366 nm): disappearance of the green-yellow fluorescence colour
Oxa-48-carbapenemases; non-induced sample, within 30 minutes
  change in fluorescence colour: did not show any change in fluorescence colour
[4]
  disappearance of the green-yellow fluorescence colour (UV light λ=366 nm): disappearance of the green-yellow fluorescence colour
[5]
  disappearance of the green-yellow fluorescence colour (UV light λ=366 nm): disappearance of the green-yellow fluorescence colour
[6]
  change in colour (fluorescence, UV light λ=366 nm): did not show any change in colour
[7]
  change in colour (fluorescence, UV light λ=366 nm): did not show any change in colour
[8]
  disappearance of the green-yellow fluorescence colour (UV light λ=366 nm): disappearance of the green-yellow fluorescence colour
[9]
  disappearance of the green-yellow fluorescence colour (UV light λ=366 nm): disappearance of the green-yellow fluorescence colour
[10]
  disappearance of the green-yellow fluorescence colour (UV light λ=366 nm): disappearance of the green-yellow fluorescence colour
[11]
  disappearance of the green-yellow fluorescence colour (UV light λ=366 nm): disappearance of the green-yellow fluorescence colour
[12]
  disappearance of the green-yellow fluorescence colour (UV light λ=366 nm): disappearance of the green-yellow fluorescence colour
[13]
  disappearance of the green-yellow fluorescence colour (UV light λ=366 nm): disappearance of the green-yellow fluorescence colour
[14]
  change in fluorescence colour (λ=366 nm): did not show any change in fluorescence colour
[15]
  change in fluorescence colour (λ=366 nm): did not show any change in fluorescence colour
[16]
  disappearance of the green-yellow fluorescence colour (λ=366 nm): disappearance of the green-yellow fluorescence colour
[17]
  disappearance of the green-yellow fluorescence colour (λ=366 nm): disappearance of the green-yellow fluorescence colour
[18]
  disappearance of the green-yellow fluorescence colour (λ=366 nm): disappearance of the green-yellow fluorescence colour
[19]
  disappearance of the green-yellow fluorescence colour (λ=366 nm): disappearance of the green-yellow fluorescence colour
[20]
  disappearance of the green-yellow fluorescence colour (λ=366 nm): disappearance of the green-yellow fluorescence colour
[21]
  disappearance of the green-yellow fluorescence colour (λ=366 nm): disappearance of the green-yellow fluorescence colour
[22]
  disappearance of the green-yellow fluorescence colour (λ=366 nm): disappearance of the green-yellow fluorescence colour
[23]
  disappearance of the green-yellow fluorescence colour (λ=366 nm): disappearance of the green-yellow fluorescence colour
[24]
  change in fluorescence colour (λ=366 nm): did not show any change in fluorescence colour
